Reference: article PMC9920598, “Impact of Starch Binding Domain Fusion on Activities and Starch Product Structure of 4-α-Glucanotransferase” (Molecules, 2023)

Columns and labels:
[1] = tested on: T1, SBDSt1-TuαGT; assay: glucose release (GOPOD), Michaelis-Menten fit; assay type: biochemical, Thermoproteus uzoniensis; conditions: disproportionation (maltotriose donor and acceptor); 70 °C, pH 7.0, 50 mM Hepes, 150 mM NaCl; 10 nM enzyme; read-out: SBDSt1-TuaGT
T1 construct: gene malQ; E. coli; 68,272 Da; with 4-alpha-glucanotransferase DPE2 (Solanum tuberosum), first CBM20 domain SBDSt1
Text: glucose release (GOPOD), Michaelis-Menten fit on SBDSt1-TuαGT

[2] = tested on: T2, SBDGA-TuαGT; assay: glucose release (GOPOD), Michaelis-Menten fit; assay type: biochemical, Thermoproteus uzoniensis; conditions: disproportionation (maltotriose donor and acceptor); 70 °C, pH 7.0, 50 mM Hepes, 150 mM NaCl; 10 nM enzyme; read-out: SBDGA-TuaGT
T2 construct: gene malQ; E. coli; 69,562 Da; with Glucoamylase (Aspergillus niger), C-terminal CBM20 domain SBDGA
Text: glucose release (GOPOD), Michaelis-Menten fit on SBDGA-TuαGT

With OC[C@H]1O[C@H](O[C@H]2[C@H](O)[C@@H](O)[C@@H](O[C@H]3[C@H](O)[C@@H](O)C(O)O[C@@H]3CO)O[C@@H]2CO)[C@H](O)[C@@H](O)[C@@H]1O (some centres unmarked) [maltotriose] the Km [1] was 3.5 ± 0.2 µM and the Km [2] was 1.4 ± 0.1 µM.
